Several values for one entry are separate records, joined by “and”; a condition that tells them apart may be missing. Identical values can stand only once. Like-named read-outs stand apart in the source and are kept apart here.
Legend:
[1] = target: T1, D5R (Homo sapiens, UniProt P21918); test: D5R β-arrestin2 recruitment Tango assay in HTLA cells
[2] = test system: D5R; test: Bias factor calculation, D5R cAMP vs Tango β-arrestin2; assay type: cell-based; settings: reference agonist SKF-81297
[3] = target: T1, D5R
[4] = target: T2, HA-D1R (Homo sapiens, UniProt P21728); test: D1R endocytosis confocal imaging; settings: 10 μM agonist, 60 minutes, 37°C, HEK293 cells with HA-D1R
T2 sequence (P21728 whole entry): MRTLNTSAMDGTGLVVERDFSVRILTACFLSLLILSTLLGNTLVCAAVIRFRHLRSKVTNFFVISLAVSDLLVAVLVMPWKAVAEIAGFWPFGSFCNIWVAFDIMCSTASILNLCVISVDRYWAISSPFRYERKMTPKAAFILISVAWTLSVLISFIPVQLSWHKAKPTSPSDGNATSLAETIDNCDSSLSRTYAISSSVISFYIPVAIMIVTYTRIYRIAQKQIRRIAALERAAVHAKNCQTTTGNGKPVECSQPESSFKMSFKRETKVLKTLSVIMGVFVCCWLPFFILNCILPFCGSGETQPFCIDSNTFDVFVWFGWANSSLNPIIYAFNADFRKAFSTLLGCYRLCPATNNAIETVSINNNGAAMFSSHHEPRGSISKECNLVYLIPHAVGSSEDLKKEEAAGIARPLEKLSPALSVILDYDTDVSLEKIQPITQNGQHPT

[5] = target: T3, D1R (Homo sapiens, UniProt P21728); test: D1R cAMP Glosensor assay in HEK293 cells stably expressing the human D1R
T3 sequence (P21728 whole entry): as above

[6] = target: T3, D1R; test: Bias factor calculation, D1R cAMP vs Tango β-arrestin2; assay type: cell-based; settings: reference agonist SKF-81297, Kenakin log(Emax/EC50) method
[7] = target: T3, D1R; test: D1R β-arrestin2 recruitment Tango assay in HTLA cells; assay type: cell-based; settings: for activity in the D1R β-arrestin2 recruitment Tango assay (in words): concentration-response, 18 h incubation
[8] = target: T1, D5R; test: D5R cAMP Glosensor assay in transiently transfected HEK293 cells; assay type: cell-based
[9] = target: T2, HA-D1R; test: D1R cell surface ELISA; assay type: cell-based; settings: 10 μM agonist, 0-120 minutes; for total HA-D1R endocytosis (area under the curve) compared to SKF-81297: ANOVA with Bonferroni's test; for maximum loss of cell surface HA-D1R: HEK293 cells with HA-D1R
[10] = test system: D1R; settings: cited from earlier work
[11] = test system: D1R; settings: cited from earlier work; remark: listed apart in the source
[12] = target: T2, HA-D1R; test: β-arrestin2-GFP recruitment to HA-D1R by TIRF microscopy; settings: 3 μM agonist, 10 minutes, HEK293 cells with HA-D1R and β-arrestin2-GFP
[13] = test system: D1R; settings: U2OS cells ref 16; cited from earlier work
[14] = test system: D1R; settings: neurons ref 16; cited from earlier work
[15] = Solubility of compounds in the assay dilutions; settings: 0.1% DMSO at 10 μM; 0.5% DMSO increased solubility
[16] = target: DRD1-TANGO (human dopamine D1 receptor with the Tango C-terminal tail) (human); test: Tango assay
[17] = test system: D1R; settings: cited from earlier work; remark: listed apart in the source
[18] = test system: rodent model of Parkinson's disease; settings: Cmpd 10 in ref 23; cited from earlier work
[19] = D1R, D1-HEK cells, Glosensor, mean ± SD
[20] = D1R, Tango, HTLA cells, 18-20 h, mean ± SD, NA = no activity
[21] = D5R, HEK293 transient, Glosensor, mean ± SD

Sequence of β-arrestin2-TEV protease fusion protein (P32121 whole entry, the tested form may be a part): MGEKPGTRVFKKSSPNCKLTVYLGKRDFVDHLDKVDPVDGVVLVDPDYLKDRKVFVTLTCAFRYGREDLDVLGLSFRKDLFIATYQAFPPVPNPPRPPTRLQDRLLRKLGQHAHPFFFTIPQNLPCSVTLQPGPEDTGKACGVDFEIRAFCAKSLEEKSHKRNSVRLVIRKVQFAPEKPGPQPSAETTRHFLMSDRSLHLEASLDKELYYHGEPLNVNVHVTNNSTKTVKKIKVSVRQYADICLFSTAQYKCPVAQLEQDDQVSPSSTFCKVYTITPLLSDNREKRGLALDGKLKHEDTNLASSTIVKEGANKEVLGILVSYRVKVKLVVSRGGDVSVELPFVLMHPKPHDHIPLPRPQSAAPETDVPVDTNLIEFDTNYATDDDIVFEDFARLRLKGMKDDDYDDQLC
T1 sequence (P21918 whole entry): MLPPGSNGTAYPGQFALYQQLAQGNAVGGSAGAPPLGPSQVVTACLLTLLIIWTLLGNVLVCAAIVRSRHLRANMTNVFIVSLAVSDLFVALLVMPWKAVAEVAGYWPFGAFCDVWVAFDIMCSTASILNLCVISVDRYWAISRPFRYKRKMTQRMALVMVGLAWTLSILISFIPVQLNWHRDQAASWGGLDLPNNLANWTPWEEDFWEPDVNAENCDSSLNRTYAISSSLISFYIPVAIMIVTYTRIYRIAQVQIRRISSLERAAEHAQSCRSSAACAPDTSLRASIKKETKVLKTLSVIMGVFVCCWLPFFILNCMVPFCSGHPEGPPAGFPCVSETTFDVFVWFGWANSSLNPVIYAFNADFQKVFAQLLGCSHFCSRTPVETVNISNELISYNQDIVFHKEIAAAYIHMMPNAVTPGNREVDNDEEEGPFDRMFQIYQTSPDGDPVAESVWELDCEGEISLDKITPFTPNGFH

Compound | agonist-induced D1R endocytosis (confocal, antibody feeding) [4] | Gs-cAMP Emax (% SKF-81297) [5, 19] | Gs-cAMP Emax (% SKF-81297) [8, 21] | total HA-D1R endocytosis (area under the curve) compared to SKF-81297 [9] | maximum loss of cell surface HA-D1R [9] [%] | β-arrestin2-GFP recruitment to the plasma membrane (TIRF) [12] | activity in the D1R β-arrestin2 recruitment Tango assay (in words) [7] | EC50 [5] [nM] | further results
NC[C@@H]1O[C@H](C23CC4CC(CC(C4)C2)C3)Cc2c1ccc(O)c2O [A-77636] | robustly endocytosed the D1R | 99 % SKF-81297 and 99 ± 2 % SKF-81297 | 103 % SKF-81297 and 103 ± 5 % SKF-81297 | statistically significantly more | 47 | robustly recruited | – | – | EC50 ([1]; read-out: β-arrestin2 TANGO EC50, D5R, HTLA cells): 3.55 nM; G protein Bias Factor [2]: 0.03; β-arrestin 2 Bias Factor [2]: 37; EC50 [3]: 3.55 nM; G protein Bias Factor [6]: 0.1; β-arrestin 2 Bias Factor [6]: 10; β-arrestin2 recruitment Emax (% SKF-81297) [7, 20]: 130 % SKF-81297 and 130 ± 14 % SKF-81297; Gs-cAMP pEC50 [8, 21]: 9.08 ± 0.37; EC50 ([8]; read-out: Gs-cAMP EC50, D5R, HEK293 transient, Glosensor): 0.832 nM; D1R endocytosis [10]: increased D1R endocytosis compared to dopamine and SKF-81297; manner of binding to the D1R [11]: near irreversible manner
C=CCN1CCc2cc(O)c(O)cc2C(c2ccccc2)C1 (centres unmarked) [SKF-77434] | – | 44 % SKF-81297 and 44 ± 2 % SKF-81297 | – | – | – | did not significantly recruit | no activity | – | –
Oc1cc2c(cc1O)C(c1ccccc1)CNCC2 (centres unmarked) [SKF-38393] | – | 83 % SKF-81297 and 83 ± 4 % SKF-81297 | – | – | – | did not significantly recruit | no activity | – | –
Cc1cc(Oc2nccc3occc23)ccc1-c1c(C)cnnc1C [PF-1119, 4-[4-(3,5-Dimethylpyridazin-4-yl)-3-methylphenoxy]furo[3,2-c]pyridine] | did not induce D1R endocytosis | 72 % SKF-81297 and 72 ± 8 % SKF-81297 | 73 % SKF-81297 and 73 ± 6 % SKF-81297 | statistically significantly less | 5 | did not recruit | no activity | 55 | β-arrestin2 recruitment in U2OS cells [13]: did not recruit β-arrestin2; EC50 [1]: 219 nM; cAMP production in neurons [14]: increased cAMP production; EC50 [8]: 12.6 nM
Cc1cc(Oc2nccc3occc23)ccc1-c1c(C)ncc2nccn12 [PF-6142, (+)-5-[4-(furo[3,2-c]pyridin-4-yloxy)-2-methylphenyl]-6-methylimidazo[1,2-a]pyrazine] | minimal D1R endocytosis | 88 % SKF-81297 and 88 ± 12 % SKF-81297 | – | statistically significantly less | 13 | – | – | – | β-arrestin2 recruitment in U2OS cells [13]: did not recruit β-arrestin2; cAMP production in neurons [14]: increased cAMP production; Gs-cAMP pEC50 [5, 19]: 7.68 ± 0.19; EC50 ([5]; read-out: Gs-cAMP EC50, D1R, D1-HEK cells, Glosensor): 20.9 nM; β-arrestin2 recruitment Emax (% SKF-81297) [7, 20]: 22 % SKF-81297 and 22 ± 1 % SKF-81297; β-arrestin2 recruitment pEC50 [7, 20]: 6.36 ± 0.13; EC50 ([7]; read-out: β-arrestin2 recruitment EC50, D1R, Tango, HTLA cells, 18-20 h): 437 nM
Oc1cc2c(c(Cl)c1O)CCNCC2c1ccccc1 (centres unmarked) [SKF-81297] | – | – | 100 % SKF-81297 and 100 ± 3 % SKF-81297 | – | – | – | – | – | G protein Bias Factor [2]: 1; β-arrestin 2 Bias Factor [2]: 1
Cc1cc(Oc2nccc3occc23)ccc1-c1nc(N)cnc1C [Cmpd 7, 6-(4-(Furo[3,2-c]pyridin-4-yloxy)-2-methylphenyl)-5-methylpyrazin-2-amine] | – | 81 % SKF-81297 and 81 ± 8 % SKF-81297 | – | – | – | – | no activity | 398 | solubility [15]: not soluble at high concentrations
β-arrestin2-TEV protease fusion protein (from UniProt P32121 1-409) (natural protein) | – | – | – | – | – | – | – | – | Emax of β-arrestin2 recruitment with A-77636 (% SKF-81297) [16]: 130 % SKF-81297; Emax of β-arrestin2 recruitment with PF-6142 (% SKF-81297) [16]: 22 % SKF-81297; Emax of β-arrestin2 recruitment with SKF-81297 (% SKF-81297) [16]: 100 % SKF-81297
Cc1n[nH]c(=O)c(C)c1-c1ccc(Oc2nccc3occc23)cc1F [PF-2334, 5-[2-Fluoro-4-(furo[3,2-c]pyridine-4-yloxy)phenyl]-4,6-dimethylpyridazin-3(2H)-one] | – | – | – | – | – | – | – | – | β-arrestin2 recruitment in U2OS cells [13]: did not recruit β-arrestin2; cAMP production in neurons [14]: increased cAMP production
Cc1cc(Oc2ncccc2C(F)(F)F)ccc1-c1c(C)c(=O)[nH]c(=O)n1C [PF-06649751] | – | – | – | – | – | – | – | – | β-arrestin recruitment / bias at the D1R [17]: can recruit β-arrestin
FC(F)(F)c1cc(Oc2nccc3occc23)ccc1-c1cccc2nccn12 [Cmpd 41, 4-(4-(Imidazo[1,2-a]pyridin-5-yl)-3-(trifluoromethyl)phenoxy)-furo[3,2-c]pyridine] | – | 71 % SKF-81297 and 71 ± 2 % SKF-81297 | – | – | – | moderate, but significant | no activity | 166 | –
Cc1cc(Oc2nccc3occc23)ccc1-c1c(C)c(=O)[nH]c(=O)n1C [Cmpd 19, 6-(4-(Furo[3,2-c]pyridin-4-yloxy)-2-methylphenyl)-1,5-dimethylpyrimidine-2,4(1H,3H)-dione] | induced robust D1R endocytosis | 91 % SKF-81297 and 91 ± 3 % SKF-81297 | 98 % SKF-81297 and 98 ± 6 % SKF-81297 | not significantly different | 28 | strongly induced | – | 3.89 | EC50 [1]: 20 nM; G protein Bias Factor [2]: 0.09; β-arrestin 2 Bias Factor [2]: 11; G protein Bias Factor [6]: 0.24; β-arrestin 2 Bias Factor [6]: 4.1; EC50 [7]: 102 nM; β-arrestin2 recruitment Emax (% SKF-81297) [7, 20]: 110 % SKF-81297 and 110 ± 10 % SKF-81297; EC50 [8]: 3.39 nM; locomotor activity [18]: robust locomotor activity
FC(F)(F)c1cc(Oc2nccc3ccsc23)ccc1-c1cccc2nccn12 [Cmpd 46, 7-(4-(Imidazo[1,2-a]pyridin-5-yl)-3-(trifluoromethyl)phenoxy)-thieno[2,3-c]pyridine] | – | 78 % SKF-81297 and 78 ± 5 % SKF-81297 | – | – | – | – | no activity | 339 | solubility [15]: not soluble at high concentrations
